Test results taken from patent US20240342127A1, “METHODS OF TREATING COPPER METABOLISM-ASSOCIATED DISEASES OR DISORDERS” (Alexion Pharmaceuticals, Inc., priority 2021, published 2024).

What was measured:
[1] = compared with other treatments; cited from earlier work
participants with WD = test system: participants with WD
Method: Incremental dose increases are permitted, but not required, up to a maximum of 60 mg/day.
In summary, the maximum daily dose permitted in this study (Study 302) has been set as […].

[2] = in vivo
patients with WD = settings: cited from earlier work

Substance: Bis-choline tetrathiomolybdate [BC-TTM]
- binding affinity to copper [1]: greater binding affinity to copper compared with other treatments
- copper mobilization from tissue to blood compared with SoC, as measured by daily mean dNCC AUEC0-48 weeks (participants with WD; 48-week Primary Evaluation Period, overall mean daily dose 15.6 mg): approximately 3 fold
- participants with Grade 2 ALT elevations during treatment (participants with WD; in vivo): approximately 15%
- effect of age, sex or body weight on PK [2]: not significant covariates
- reduction of mean serum non-ceruloplasmin-bound Cu (NCC) compared with baseline (patients with WD; Week 24, 28 patients with WD, monotherapy): 72%
- most frequently reported drug-related AEs (patients with WD; human, in vivo): changes in hematological parameters, fatigue, sulphur eructations, and other gastrointestinal symptoms
- paradoxical neurological worsening upon treatment initiation (patients with WD; human, in vivo): No paradoxical neurological worsening was observed
- patients with reversible liver function test elevations (patients with WD; human, in vivo): 39%
- severity of most reported adverse events (patients with WD; human, in vivo): mild (Grade 1) to moderate (Grade 2)
- tolerability of treatment (patients with WD; human, in vivo): generally well-tolerated
